Data published in the NIST ThermoML archive (doi:10.1021/acs.jced.6b01071).
Numbers after ± are expanded uncertainties.

What was measured:
[1] = Liquid; for mass density: 298.15 K, 101.33 kPa, Vibrating tube method; for vapor or sublimation pressure: Ebulliometric method (Recirculating still)
[2] = Boiling temperature at pressure P; details: 101.3 kPa; Liquid; Ebulliometric method (Recirculating still)
[3] = refractive index (Na D-line) (dimensionless); details: 298.15 K; 101.33 kPa; Liquid; Standard Abbe refractometry

mass density [1] [kg/m3]	vapor or sublimation pressure ([1]; 381.15 K) [kPa]	vapor or sublimation pressure ([1]; 381.41 K) [kPa]	vapor or sublimation pressure ([1]; 395.9 K) [kPa]	vapor or sublimation pressure ([1]; 396.04 K) [kPa]	vapor or sublimation pressure ([1]; 406.39 K) [kPa]	vapor or sublimation pressure ([1]; 406.59 K) [kPa]	Boiling temperature at pressure P [2] [°C]	refractive index [3]	vapor or sublimation pressure ([1]; 384.76 K) [kPa]	vapor or sublimation pressure ([1]; 400.65 K) [kPa]	vapor or sublimation pressure ([1]; 411.56 K) [kPa]	vapor or sublimation pressure ([1]; 309.68 K) [kPa]	vapor or sublimation pressure ([1]; 320.76 K) [kPa]	vapor or sublimation pressure ([1]; 328.55 K) [kPa]	SMILES
961.52 ± 5	30 ± 1	30 ± 1	50 ± 1	50 ± 1	70 ± 1	70 ± 1	145.57 ± 0.2	1.3986 ± 0.01	–	–	–	–	–	–	COCC(C)OC(C)=O (stereo unspecified) [1-methoxy-2-propyl acetate]
943.89 ± 5	–	–	–	–	–	–	153.50 ± 0.2	1.4277 ± 0.01	30 ± 1	50 ± 1	70 ± 1	–	–	–	CN(C)C=O [dimethylformamide]
786.59 ± 5	–	–	–	–	–	–	64.48 ± 0.2	1.3264 ± 0.01	–	–	–	30 ± 1	50 ± 1	70 ± 1	CO [methanol]
